Results on one compound are retold here after US11452704B2, “Prevention and treatment of muscle wasting with ketone supplementation” (UNIVERSITY OF SOUTH FLORIDA, priority 2017, dated 2022).

Assay [1] relates to tissue catabolism/atrophy/cachexia that is induced by LPS. Nature of the assay: LPS-induced catabolism, pair fed animals, multiple treatments (Example 6). Format: in vivo. Here is the method: FIG. 5A depicts the difference in bodyweight following Lipopolysaccharide administration with multiple treatments with control or ketone supplementation with calories controlled across groups.
FIG. 5B depicts the difference in percent bodyweight following Lipopolysaccharide administration with multiple treatments with control or ketone supplementation with calories controlled across groups.
FIG. 5A-B depicts weight matched animals who were administered 10 mg/kg LPS intraperitoneally. After intraperitoneal LPS injection, 4 mL/kg of water (n=4) or R/S 1,3 Butanediol Acetoacetate Diester (Ketone Diester; n=4) were intragastrically gavaged into animals. Animals were pair fed to ensure calories were equivalent between groups to remove influence of caloric intake on tissue catabolism/atrophy/cachexia. […] This effect was retained for a minimum of 2 days following catabolic/atrophy/cachexia stimulus (10 mg/kg LPS intraperitoneal). The ability of Ketone Diester to attenuate catabolism was independent of caloric intake/anorexia induced by LPS.

The test system is the same in assay [2]. Nature of the assay: LPS-induced catabolism, single gavage, bodyweight tracked for 2 weeks (Example 4). Format: in vivo, VM/Dk mice. An excerpt:
FIG. 3A depicts acute percent bodyweight changes that accompany Lipopolysaccharide after treatment with control or ketone supplementation in VM/Dk mice.
FIG. 3B depicts acute bodyweight changes that accompany Lipopolysaccharide after treatment with control or ketone supplementation in VM/Dk mice.
FIG. 3C depicts chronic percent bodyweight changes that accompany Lipopolysaccharide after treatment with control or ketone supplementation in VM/Dk mice.
FIG. 3D depicts the difference in bodyweight with control treatment at baseline versus each day following Lipopolysaccharide treatment.
FIG. 3E depicts the difference in bodyweight with ketone supplement treatment at baseline versus each day following Lipopolysaccharide treatment.
FIGS. 3A-E depict results from Weight matched animals who were administered 10 mg/kg LPS intraperitoneally. After intraperitoneal LPS injection, 4 mL/kg of water (n=4) or R/S 1,3 Butanediol Acetoacetate Diester (Ketone Diester; n=5) were intragastrically gavaged into animals one time. Bodyweight and food intake were tracked for 2 weeks post LPS administration. […] FIG. 3D-E depicts animals administered water gavage post LPS were not able to recovery to baseline bodyweight levels until 11 days post LPS administration.

The test system of another assay is cancer cachexia (VM-M3). Nature of the assay: Cancer cachexia (VM-M3), skeletal muscle weight as ratio to baseline bodyweight (Example 7). It counts as in vivo. The conditions noted are these: ketone diester in standard diet food at 30% by weight; 21 days post cancer injection; vs cancer on standard diet; FIG. 6A-B. An excerpt:
FIG. 6A depicts the difference in skeletal muscle weight following cancer cachexia administration (VM-M3) with control or ketone supplementation.
FIG. 6B depicts the difference in skeletal muscle weight following cancer cachexia administration (VM-M3) with control or ketone supplementation.
FIG. 6A-B depict weight matched animals who were split into 3 groups 1) Animals without cancer injected with vehicle on standard diet (Sham; n=11), 2) animals with cancer on standard diet (n=11), and 3) animals with cancer with ketone diester incorporated into the standard diet food at 30% by weight (n=11). Animals bodyweight was measured at baseline. Cancer groups were assessed in a validated model of cancer cachexia. At 21 days post vehicle or cancer injection, tissue were harvest and weighed. Skeletal Muscle weight was set as a ratio to baseline bodyweight to determine the differences in skeletal muscle tissue as compared to set pre-cancer timepoint.

In assay [3] the test system is anorexia induced by catabolic/atrophy/cachexic stimulus (LPS). Nature of the assay: LPS-induced anorexia, food intake (Example 5). Format: in vivo. The conditions noted are these: 10 mg/kg LPS i.p.; one-time dose 4 mL/kg intragastric gavage vs water; FIG. 4A-B. Here is the method: FIG. 4A depicts the difference in anorexia symptoms following Lipopolysaccharide administration with treatment with control or ketone supplementation.
FIG. 4B depicts the difference in caloric intake following Lipopolysaccharide administration with treatment with control or ketone supplementation.
FIG. 4A-B depicts weight matched animals who were administered 10 mg/kg LPS intraperitoneally. After intraperitoneal LPS injection, 4 mL/kg of water (n=4) or R/S 1,3 Butanediol Acetoacetate Diester (Ketone Diester; n=5) were intragastrically gavaged into animals. Food Intake was tracted to determine if a one-time does of Ketone Diester was able to reduce anorexia experiences post catabolic/atrophy/cachexic stimulus (10 mg/kg LPS intraperitoneally).

For assay [4], the system named is cancer induced tissue wasting (muscle and fat), VM-M3 model of metastatic cancer. Nature of the assay: VM-M3 model of metastatic cancer: muscle mass as ratio of total calories consumed (Example 2). Format: in vivo, VM/Dk animals. Particulars: with standard diet, vs standard diet or ketogenic diet; 21 days post-cancer implantation; FIG. 1. An excerpt:
FIG. 1 depicts ratios of muscle mass to amount of calories consumed within a cancer cachexia VM-M3 modeling system, specifically with subjects having been fed standard diet, ketogenic diet, and ketone diester.
Taking a model system of cancer induced tissue wasting (muscle and fat), R,S 1,3 butanediol diacetoacetate+standard diet, ketogenic diet, and standard diet were applied. VM/Dk animals were matched for sex, age, and bodyweight to ensure controlled groups. Animals were implanted with VM-M3 cell in the left flank to create the VM-M3 model of metastatic cancer. Once implanted, primary tumor forms at site of implantation, and then cells metastasize to all major organ systems that results in tissue wasting. Animals were harvested at 21 days post-cancer implantation to evaluate tissue wasting. […] This confirms that R,S 1,3 butanediol diacetoacetate is an anti-catabolic/anti-tissue wasting compound.

Some results are limits rather than exact numbers.

Turning to `CC(=O)CC(=O)OCCC(C)OC(=O)CC(C)=O` (stereo not shown) [Ketone Diester, R/S 1,3 Butanediol Acetoacetate Diester], the “tissue catabolism/atrophy/cachexia (bodyweight) induced by LPS, calories controlled” value in assay [1] (10 mg/kg LPS i.p., 4 mL/kg gavage, multiple administrations, FIG. 5A-B) is “significantly attenuated tissue catabolism/atrophy/cachexia”. Moreover, the “duration for which the anti-catabolic effect was retained” value in assay [1] (following 10 mg/kg LPS intraperitoneal) was no less than 2 days. Also, the “bodyweight versus baseline on each day following LPS” value in assay [2] (10 mg/kg LPS i.p., 4 mL/kg gavage, FIG. 3E (water control recovered only at 11 days)) was “did not significantly reduced in bodyweight”. Moreover, in assay [2] (10 mg/kg LPS i.p., 4 mL/kg intragastric gavage one time, within 1st 24 hour post LPS, FIG. 3A), the “attenuation of tissue catabolism/atrophy/cachexia induced by LPS” value came out at 46%. The “attenuation of percentage of tissue catabolism/atrophy/cachexia induced by LPS” value in assay [2] (10 mg/kg LPS i.p., 4 mL/kg intragastric gavage one time, within 1st 24 hours post LPS, FIG. 3B) turned out to be 48%. For the same compound, the “chronic tissue catabolism (percent bodyweight change) compared to control” value in assay [2] (multi-weeks post-LPS administration, FIG. 3C) is listed as “significantly attenuated tissue catabolism compared to control”. In the assay on cancer cachexia (VM-M3), the “Gastrocnemius catabolism/atrophy/cachexia (muscle weight / baseline bodyweight)” value is recorded as “significantly attenuated” and the “Quadricep catabolism/atrophy/cachexia (muscle weight / baseline bodyweight)” value was “significantly attenuated”. For the same compound, the “anorexia (food intake, caloric intake) following LPS” value in assay [3] is on record as “significantly reduced the anorexia”. In assay [4], the “percentage of muscle mass as a ratio of total calories consumed (Quad/Carcass/Absolute calories consumed)” value is recorded as “substantially higher percentage of muscle mass compared to the amount of calories consumed”.
